Tests used:
[1] = 298.15 K; 101.33 kPa; Liquid; Vibrating tube method
[2] = refractive index (Na D-line) (dimensionless); settings: 298.15 K; 101.33 kPa; Liquid; Standard Abbe refractometry
[3] = molar heat capacity at constant pressure; settings: 298.15 K; 101.33 kPa; Liquid; Flow calorimetry
[4] = excess molar enthalpy (molar enthalpy of mixing); xn = mol fraction of the nth substance listed; settings: 298.15 K, 101.3 kPa, Liquid, Flow calorimetry
[5] = refractive index (Na D-line) (dimensionless); xn = mol fraction of the nth substance listed; settings: 298.15 K, 101.3 kPa, Liquid, refractometer
[6] = xn = mol fraction of the nth substance listed; settings: 298.15 K, 101.3 kPa, Liquid, vibrating tube
[7] = heat capacity at constant pressure per volume; xn = mol fraction of the nth substance listed; settings: 298.15 K, 101.3 kPa, Liquid, Flow calorimetry

C1COCO1 [1,3-dioxolane]
Settings	mass density [kg/m3]	molar heat capacity at constant pressure [J/K/mol]	refractive index
[1]	1058.67	–	–
[2]	–	–	1.39797
[3]	–	121.66	–

C1COCO1 [1,3-dioxolane] + O=C1CCCCC1
[4]
Settings	excess molar enthalpy [kcal/mol]
x1 = 0.1	0.0153
x1 = 0.15	0.0214
x1 = 0.2	0.0265
x1 = 0.25	0.0309
x1 = 0.3	0.0348
x1 = 0.35	0.0382
x1 = 0.4	0.0399
x1 = 0.45	0.0409
x1 = 0.5	0.041
x1 = 0.55	0.0404
x1 = 0.6	0.039
x1 = 0.65	0.0369
x1 = 0.7	0.0341
x1 = 0.75	0.0305
x1 = 0.8	0.0261
x1 = 0.85	0.0208
x1 = 0.9	0.0148

CCCCCC(C)=O [2-heptanone] + C1COCO1
Settings	excess molar enthalpy [kcal/mol]	heat capacity [J/K/m3]	mass density [kg/m3]	refractive index
[4], x2 = 0.1	0.028	–	–	–
[4], x2 = 0.15	0.041	–	–	–
[4], x2 = 0.2	0.0538	–	–	–
[4], x2 = 0.25	0.0658	–	–	–
[4], x2 = 0.3	0.0764	–	–	–
[4], x2 = 0.35	0.0857	–	–	–
[4], x2 = 0.4	0.0936	–	–	–
[4], x2 = 0.45	0.0993	–	–	–
[4], x2 = 0.5	0.1031	–	–	–
[4], x2 = 0.55	0.105	–	–	–
[4], x2 = 0.6	0.104	–	–	–
[4], x2 = 0.65	0.102	–	–	–
[4], x2 = 0.7	0.0972	–	–	–
[4], x2 = 0.75	0.0894	–	–	–
[4], x2 = 0.8	0.0793	–	–	–
[4], x2 = 0.85	0.066	–	–	–
[4], x2 = 0.9	0.0486	–	–	–
[5], x2 = 0.0796	–	–	–	1.4064
[5], x2 = 0.1592	–	–	–	1.40592
[5], x2 = 0.2381	–	–	–	1.40542
[5], x2 = 0.315	–	–	–	1.40489
[5], x2 = 0.3582	–	–	–	1.40459
[5], x2 = 0.3981	–	–	–	1.4043
[5], x2 = 0.437	–	–	–	1.404
[5], x2 = 0.4767	–	–	–	1.4037
[5], x2 = 0.5147	–	–	–	1.4034
[5], x2 = 0.5562	–	–	–	1.40305
[5], x2 = 0.5892	–	–	–	1.40276
[5], x2 = 0.6363	–	–	–	1.40234
[5], x2 = 0.6694	–	–	–	1.40202
[5], x2 = 0.7034	–	–	–	1.40169
[5], x2 = 0.7886	–	–	–	1.40078
[5], x2 = 0.8717	–	–	–	1.39979
[5], x2 = 0.9502	–	–	–	1.39873
[6], x2 = 0.1058	–	–	824.42	–
[6], x2 = 0.1274	–	–	827.37	–
[6], x2 = 0.244	–	–	844.52	–
[6], x2 = 0.3122	–	–	855.72	–
[6], x2 = 0.3693	–	–	865.84	–
[6], x2 = 0.3985	–	–	871.31	–
[6], x2 = 0.4258	–	–	876.6	–
[6], x2 = 0.4304	–	–	877.56	–
[6], x2 = 0.4313	–	–	877.69	–
[6], x2 = 0.4768	–	–	887.06	–
[6], x2 = 0.5071	–	–	893.63	–
[6], x2 = 0.5125	–	–	894.83	–
[6], x2 = 0.5141	–	–	895.15	–
[6], x2 = 0.536	–	–	900.1	–
[6], x2 = 0.5433	–	–	901.8	–
[6], x2 = 0.5928	–	–	913.69	–
[6], x2 = 0.6302	–	–	923.33	–
[6], x2 = 0.6308	–	–	923.51	–
[6], x2 = 0.667	–	–	933.32	–
[6], x2 = 0.7125	–	–	946.48	–
[6], x2 = 0.785	–	–	969.65	–
[6], x2 = 0.8627	–	–	997.8	–
[6], x2 = 0.9533	–	–	1036.16	–
[7], x2 = 0.0872	–	1721500	–	–
[7], x2 = 0.1656	–	1720700	–	–
[7], x2 = 0.2372	–	1720000	–	–
[7], x2 = 0.3167	–	1719700	–	–
[7], x2 = 0.3868	–	1719900	–	–
[7], x2 = 0.4649	–	1720200	–	–
[7], x2 = 0.541	–	1721000	–	–
[7], x2 = 0.6252	–	1722500	–	–
[7], x2 = 0.6995	–	1724400	–	–
[7], x2 = 0.7807	–	1726700	–	–
[7], x2 = 0.8584	–	1729700	–	–

O=C1CCCC1 [cyclopentanone] + C1COCO1
Settings	excess molar enthalpy [kcal/mol]	heat capacity [J/K/m3]	mass density [kg/m3]	refractive index
[4], x2 = 0.1	-0.000954	–	–	–
[4], x2 = 0.2	-0.00204	–	–	–
[4], x2 = 0.3	-0.0033	–	–	–
[4], x2 = 0.4	-0.00437	–	–	–
[4], x2 = 0.5	-0.00521	–	–	–
[4], x2 = 0.6	-0.00564	–	–	–
[4], x2 = 0.7	-0.00548	–	–	–
[4], x2 = 0.8	-0.00463	–	–	–
[4], x2 = 0.9	-0.00288	–	–	–
[5], x2 = 0.0815	–	–	–	1.43248
[5], x2 = 0.1569	–	–	–	1.43014
[5], x2 = 0.2322	–	–	–	1.42774
[5], x2 = 0.3155	–	–	–	1.425
[5], x2 = 0.3526	–	–	–	1.42375
[5], x2 = 0.3965	–	–	–	1.42224
[5], x2 = 0.4345	–	–	–	1.42091
[5], x2 = 0.4742	–	–	–	1.41949
[5], x2 = 0.5109	–	–	–	1.41816
[5], x2 = 0.5558	–	–	–	1.4165
[5], x2 = 0.5858	–	–	–	1.41537
[5], x2 = 0.6334	–	–	–	1.41355
[5], x2 = 0.6716	–	–	–	1.41206
[5], x2 = 0.7127	–	–	–	1.41042
[5], x2 = 0.7862	–	–	–	1.4074
[5], x2 = 0.8695	–	–	–	1.40385
[5], x2 = 0.9509	–	–	–	1.40023
[6], x2 = 0.0808	–	–	951.41	–
[6], x2 = 0.1586	–	–	958.77	–
[6], x2 = 0.2251	–	–	965.28	–
[6], x2 = 0.3113	–	–	974.02	–
[6], x2 = 0.3507	–	–	978.14	–
[6], x2 = 0.4024	–	–	983.65	–
[6], x2 = 0.4295	–	–	986.6	–
[6], x2 = 0.4749	–	–	991.62	–
[6], x2 = 0.509	–	–	995.47	–
[6], x2 = 0.5451	–	–	999.61	–
[6], x2 = 0.5465	–	–	999.76	–
[6], x2 = 0.5891	–	–	1004.75	–
[6], x2 = 0.6248	–	–	1009	–
[6], x2 = 0.6813	–	–	1015.89	–
[6], x2 = 0.7075	–	–	1019.14	–
[6], x2 = 0.7891	–	–	1029.57	–
[6], x2 = 0.8629	–	–	1039.38	–
[7], x2 = 0.0645	–	1713700	–	–
[7], x2 = 0.1429	–	1716000	–	–
[7], x2 = 0.3008	–	1720700	–	–
[7], x2 = 0.3817	–	1723100	–	–
[7], x2 = 0.4603	–	1725400	–	–
[7], x2 = 0.5381	–	1727400	–	–
[7], x2 = 0.6191	–	1729600	–	–
[7], x2 = 0.6973	–	1731600	–	–
[7], x2 = 0.8468	–	1734900	–	–
[7], x2 = 0.928	–	1736500	–	–

CCCC(C)=O [pentan-2-one] + C1COCO1
Settings	excess molar enthalpy [kcal/mol]	heat capacity [J/K/m3]	mass density [kg/m3]	refractive index
[4], x2 = 0.1	0.0128	–	–	–
[4], x2 = 0.15	0.0196	–	–	–
[4], x2 = 0.2	0.0266	–	–	–
[4], x2 = 0.25	0.0329	–	–	–
[4], x2 = 0.3	0.0375	–	–	–
[4], x2 = 0.35	0.0424	–	–	–
[4], x2 = 0.4	0.0462	–	–	–
[4], x2 = 0.45	0.0492	–	–	–
[4], x2 = 0.5	0.0504	–	–	–
[4], x2 = 0.55	0.0506	–	–	–
[4], x2 = 0.6	0.0498	–	–	–
[4], x2 = 0.65	0.0479	–	–	–
[4], x2 = 0.7	0.0449	–	–	–
[4], x2 = 0.75	0.0407	–	–	–
[4], x2 = 0.8	0.0353	–	–	–
[4], x2 = 0.85	0.0286	–	–	–
[4], x2 = 0.9	0.0205	–	–	–
[5], x2 = 0.0759	–	–	–	1.3885
[5], x2 = 0.1654	–	–	–	1.38924
[5], x2 = 0.2333	–	–	–	1.38982
[5], x2 = 0.3134	–	–	–	1.39054
[5], x2 = 0.3532	–	–	–	1.39091
[5], x2 = 0.3984	–	–	–	1.39134
[5], x2 = 0.431	–	–	–	1.39166
[5], x2 = 0.4741	–	–	–	1.39208
[5], x2 = 0.5178	–	–	–	1.39252
[5], x2 = 0.5578	–	–	–	1.39293
[5], x2 = 0.5924	–	–	–	1.39329
[5], x2 = 0.6321	–	–	–	1.39372
[5], x2 = 0.6761	–	–	–	1.39419
[5], x2 = 0.7128	–	–	–	1.3946
[5], x2 = 0.7928	–	–	–	1.3955
[5], x2 = 0.9448	–	–	–	1.3973
[6], x2 = 0.0882	–	–	816.74	–
[6], x2 = 0.1647	–	–	830.91	–
[6], x2 = 0.2307	–	–	843.79	–
[6], x2 = 0.3499	–	–	868.72	–
[6], x2 = 0.3798	–	–	875.35	–
[6], x2 = 0.4314	–	–	887.14	–
[6], x2 = 0.4631	–	–	894.63	–
[6], x2 = 0.5169	–	–	907.82	–
[6], x2 = 0.5183	–	–	908.18	–
[6], x2 = 0.5529	–	–	916.98	–
[6], x2 = 0.5897	–	–	926.62	–
[6], x2 = 0.6338	–	–	938.59	–
[6], x2 = 0.6667	–	–	947.78	–
[6], x2 = 0.7131	–	–	961.29	–
[6], x2 = 0.7174	–	–	962.55	–
[6], x2 = 0.7909	–	–	985.17	–
[6], x2 = 0.8704	–	–	1011.41	–
[6], x2 = 0.9486	–	–	1039.18	–
[7], x2 = 0.0638	–	1709600	–	–
[7], x2 = 0.1404	–	1711100	–	–
[7], x2 = 0.2192	–	1712900	–	–
[7], x2 = 0.2981	–	1714700	–	–
[7], x2 = 0.3819	–	1716700	–	–
[7], x2 = 0.4598	–	1719100	–	–
[7], x2 = 0.5386	–	1721800	–	–
[7], x2 = 0.6171	–	1724700	–	–
[7], x2 = 0.6915	–	1727300	–	–
[7], x2 = 0.7737	–	1730500	–	–
[7], x2 = 0.8546	–	1733700	–	–
[7], x2 = 0.9324	–	1736700	–	–
